From ChEMBL document CHEMBL5154817, “Structure-activity relationship studies on O-alkylamino-tethered salicylamide derivatives with various amino acid linkers as potent anticancer agents” (Eur J Med Chem, 2022)
Active and inactive are the calls of the source. The calls are words filed in the database; no cut-off is given here.

Columns and labels:
[1] = test system: MCF7; experiment: Inhibition of colony formation in human MCF7 cells incubated for 2 weeks measured by crystal violet staining method; type: functional, cell-based; details: dose 1-10 µM, DDE = dose-dependent effect
[2] = test system: MDA-MB-231; experiment: Antiproliferative activity against human MDA-MB-231 cells assessed as inhibition of cell growth incubated for 72 hrs by MTT assay; type: functional, cell-based; details: MDA-MB-231, 72 h
[3] = test system: MCF7; experiment: Antiproliferative activity against human MCF7 cells assessed as inhibition of cell growth incubated for 72 hrs by MTT assay; type: functional, cell-based; details: MCF7, 72 h
[4] = test system: MDA-MB-468; experiment: Antiproliferative activity against human MDA-MB-468 cells assessed as inhibition of cell growth incubated for 72 hrs by MTT assay; type: functional, cell-based; details: MDA-MB-468, 72 h
[5] = test system: T47D; experiment: Antiproliferative activity against human T47D cells assessed as inhibition of cell growth incubated fro 72 hrs by MTT assay; type: functional, cell-based
[6] = Cytotoxicity against human MCF-10A cells incubated for 72 hrs by MTT assay; type: toxicity, cell-based
[7] = test system: MDA-MB-231; experiment: Inhibition of colony formation in human MDA-MB-231 cells incubated for 2 weeks measured by crystal violet staining method; type: functional, cell-based; details: dose 0.1-3 µM, DDE = dose-dependent effect
[8] = test system: MDA-MB-468; experiment: Inhibition of colony formation in human MDA-MB-468 cells incubated for 2 weeks measured by crystal violet staining method; type: functional, cell-based; details: dose 0.5-7.5 µM, DDE = dose-dependent effect
[9] = test system: T47D; experiment: Inhibition of colony formation in human T47D cells incubated for 2 weeks measured by crystal violet staining method; type: functional, cell-based; details: dose 0.5-7.5 µM, DDE = dose-dependent effect
[10] = biological target: Signal transducer and activator of transcription 3 (Homo sapiens) (UniProt P40763); experiment: Inhibition of STAT3 in human MDA-MB-231 cells assessed as suppression of STAT3 phosphorylation incubated for 24 hrs by Western blotting analysis; type: cell-based; details: dose 1-10 µM, DDE = dose-dependent effect
[11] = test system: MDA-MB-231; experiment: Induction of apoptosis in human MDA-MB-231 cells assessed as activation of Bax at 1 to 10 uM incubated for 48 hrs by Western blotting analysis; type: functional, cell-based; details: dose 1-10 µM
[12] = test system: MDA-MB-231; experiment: Induction of apoptosis in human MDA-MB-231 cells assessed as increase in cleaved caspase-3 level at 1 to 10 uM incubated for 48 hrs by Western blotting analysis; type: functional, cell-based; details: dose 1-10 µM
[13] = test system: MDA-MB-231; experiment: Induction of apoptosis in human MDA-MB-231 cells assessed as increase in cleaved PARP level at 1 to 10 uM incubated for 48 hrs by Western blotting analysis; type: functional, cell-based; details: dose 1-10 µM
[14] = test system: MDA-MB-231; experiment: Induction of apoptosis in human MDA-MB-231 cells assessed as downregulation of Bcl-2 level at 1 to 10 uM incubated for 48 hrs by Western blotting analysis; type: functional, cell-based; details: dose 1-10 µM
[15] = test system: MDA-MB-231; experiment: Induction of apoptosis in human MDA-MB-231 cells assessed as viable cells at 1 uM incubated for 48 hrs by Annexin V staining based cell analyzer method (reference value: 92.55%); type: functional; details: read-out: Activity
[16] = test system: MDA-MB-231; experiment: Induction of apoptosis in human MDA-MB-231 cells assessed as early apoptotic cells at 1 uM incubated for 48 hrs by Annexin V staining based cell analyzer method (reference value: 2.6%); type: functional
[17] = test system: MDA-MB-231; experiment: Induction of apoptosis in human MDA-MB-231 cells assessed as late apoptotic cells at 1 uM incubated for 48 hrs by Annexin V staining based cell analyzer method (reference value: 4.45%); type: functional
[18] = test system: MDA-MB-231; experiment: Induction of apoptosis in human MDA-MB-231 cells assessed as necrotic cells at 1 uM incubated for 48 hrs by Annexin V staining based cell analyzer method (reference value: 0.4%); type: functional
[19] = test system: MDA-MB-231; experiment: Induction of apoptosis in human MDA-MB-231 cells assessed as viable cells at 5 uM incubated for 48 hrs by Annexin V staining based cell analyzer method (reference value: 92.55%); type: functional; details: read-out: Activity
[20] = test system: MDA-MB-231; experiment: Induction of apoptosis in human MDA-MB-231 cells assessed as early apoptotic cells at 5 uM incubated for 48 hrs by Annexin V staining based cell analyzer method (reference value: 2.6%); type: functional
[21] = test system: MDA-MB-231; experiment: Induction of apoptosis in human MDA-MB-231 cells assessed as late apoptotic cells at 5 uM incubated for 48 hrs by Annexin V staining based cell analyzer method (reference value: 4.45%); type: functional
[22] = test system: MDA-MB-231; experiment: Induction of apoptosis in human MDA-MB-231 cells assessed as necrotic cells at 5 uM incubated for 48 hrs by Annexin V staining based cell analyzer method (reference value: […]); type: functional
[23] = test system: MDA-MB-231; experiment: Induction of apoptosis in human MDA-MB-231 cells assessed as viable cells at 10 uM incubated for 48 hrs by Annexin V staining based cell analyzer method (reference value: 92.55%); type: functional; details: read-out: Activity
[24] = test system: MDA-MB-231; experiment: Induction of apoptosis in human MDA-MB-231 cells assessed as early apoptotic cells at 10 uM incubated for 48 hrs by Annexin V staining based cell analyzer method (reference value: 2.6%); type: functional
[25] = test system: MDA-MB-231; experiment: Induction of apoptosis in human MDA-MB-231 cells assessed as late apoptotic cells at 10 uM incubated for 48 hrs by Annexin V staining based cell analyzer method (reference value: 4.45%); type: functional
[26] = test system: MDA-MB-231; experiment: Induction of apoptosis in human MDA-MB-231 cells assessed as necrotic cells at 10 uM incubated for 48 hrs by Annexin V staining based cell analyzer method (reference value: 0.4%); type: functional
[27] = test system: MDA-MB-231; experiment: Antitumor activity against human MDA-MB-231 cells xenografted in nude mouse assessed as reduction in tumor volume at 10 mg/kg, ip measured every other day for 14 days; type: functional; details: MDA-MB-231, 336 h, time 14 day
[28] = Toxicity in nude mouse xenografted with human MDA-MB-231 cells assessed as loss of body weight at 7.5 to 10 mg/kg, ip measured daily for 14 days; type: organism-based; details: in vivo, 336 h, dose 7.5-10 mg/kg, time 14 day

Chain of Signal transducer and activator of transcription 3 (Homo sapiens) (P40763 whole entry): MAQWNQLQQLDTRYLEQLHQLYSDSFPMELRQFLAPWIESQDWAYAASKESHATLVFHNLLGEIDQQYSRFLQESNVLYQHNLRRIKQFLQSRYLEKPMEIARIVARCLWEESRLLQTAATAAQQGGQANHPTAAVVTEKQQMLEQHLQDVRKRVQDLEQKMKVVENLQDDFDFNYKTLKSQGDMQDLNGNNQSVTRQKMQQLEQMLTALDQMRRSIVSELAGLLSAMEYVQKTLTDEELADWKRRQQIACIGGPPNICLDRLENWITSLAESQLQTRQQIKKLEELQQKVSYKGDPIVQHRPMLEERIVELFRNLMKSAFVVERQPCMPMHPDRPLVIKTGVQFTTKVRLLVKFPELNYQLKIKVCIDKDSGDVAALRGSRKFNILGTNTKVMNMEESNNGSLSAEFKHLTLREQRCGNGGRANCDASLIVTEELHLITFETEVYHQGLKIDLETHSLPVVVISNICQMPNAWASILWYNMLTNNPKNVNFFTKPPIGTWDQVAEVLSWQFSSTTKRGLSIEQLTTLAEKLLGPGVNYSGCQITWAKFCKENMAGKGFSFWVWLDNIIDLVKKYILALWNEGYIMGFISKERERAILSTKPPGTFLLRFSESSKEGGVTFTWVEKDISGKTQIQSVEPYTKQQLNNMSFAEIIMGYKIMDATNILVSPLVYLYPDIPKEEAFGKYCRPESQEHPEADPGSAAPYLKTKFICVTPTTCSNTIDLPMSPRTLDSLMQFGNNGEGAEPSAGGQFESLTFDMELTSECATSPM

For `CC(C)[C@H](NC(=O)c1cc(Cl)ccc1OCCNC(=O)OC(C)(C)C)C(=O)Nc1ccc([N+](=O)[O-])cc1Cl`, the inhibition [1] was “Dde”, the IC50 [2] was 3.38 µM and the IC50 [3] was 9.05 µM. The IC50 [4] was 18.3 µM, the IC50 [5] was 8.92 µM and the IC50 at 72 h [6] was over 60 µM. For the same molecule, the inhibition [7] was “Dde”, the inhibition [8] was “Dde” and the inhibition [9] was “Dde”. For the same molecule, the inhibition [10] was “Dde”, the Activity [11] was “Active” and the Activity [12] was “Active”. The Activity [13] was “Active”, the Activity [14] was “Active” and the viability at 1 µM [15] was 94.2%. It also gave an Activity [16] of 2.85%, an Activity [17] of 2.6% and an Activity [18] of 0.3%. For the same molecule, the viability at 5 µM [19] was 78.8%, the Activity [20] was 9.75% and the Activity [21] was 10.9%. It also gave an Activity [22] of 0.55%, a viability at 10 µM [23] of 44.9% and an Activity [24] of 17.85%. For the same molecule, the Activity [25] was 35.7%, the Activity [26] was 1.6% and the inhibition in vivo at 10 mg/kg [27] was 55%. For the same molecule, the Activity [28] was “Non-Toxic”.
